Measurements from patent US8299048B2, “Hexahydrocyclopentyl[f]indazole sulfonamides and derivatives thereof as selective glucocorticoid receptor modulators” (Merck Sharp & Dohme Corp., priority 2008, dated 2012).
pEC50: −log10 of the molar value.

Legend:
human GR [1] = target: T1, human GR (Homo sapiens, UniProt P04150); assay: Trans-Activation Modulation of Glucocorticoid Receptor (GRAMMER), MMTV-LUC reporter, agonist mode; assay type: cell-based; design: endogenous in cells; conditions: for Emax: A549, A549 cells, maximum activity, read-out: Transactivation A549 Cells GRAMMER Emax; for pEC50: A549 cells, inflection point, read-out: Transactivation A549 Cells GRAMMER IP
T1 sequence (P04150 1-777): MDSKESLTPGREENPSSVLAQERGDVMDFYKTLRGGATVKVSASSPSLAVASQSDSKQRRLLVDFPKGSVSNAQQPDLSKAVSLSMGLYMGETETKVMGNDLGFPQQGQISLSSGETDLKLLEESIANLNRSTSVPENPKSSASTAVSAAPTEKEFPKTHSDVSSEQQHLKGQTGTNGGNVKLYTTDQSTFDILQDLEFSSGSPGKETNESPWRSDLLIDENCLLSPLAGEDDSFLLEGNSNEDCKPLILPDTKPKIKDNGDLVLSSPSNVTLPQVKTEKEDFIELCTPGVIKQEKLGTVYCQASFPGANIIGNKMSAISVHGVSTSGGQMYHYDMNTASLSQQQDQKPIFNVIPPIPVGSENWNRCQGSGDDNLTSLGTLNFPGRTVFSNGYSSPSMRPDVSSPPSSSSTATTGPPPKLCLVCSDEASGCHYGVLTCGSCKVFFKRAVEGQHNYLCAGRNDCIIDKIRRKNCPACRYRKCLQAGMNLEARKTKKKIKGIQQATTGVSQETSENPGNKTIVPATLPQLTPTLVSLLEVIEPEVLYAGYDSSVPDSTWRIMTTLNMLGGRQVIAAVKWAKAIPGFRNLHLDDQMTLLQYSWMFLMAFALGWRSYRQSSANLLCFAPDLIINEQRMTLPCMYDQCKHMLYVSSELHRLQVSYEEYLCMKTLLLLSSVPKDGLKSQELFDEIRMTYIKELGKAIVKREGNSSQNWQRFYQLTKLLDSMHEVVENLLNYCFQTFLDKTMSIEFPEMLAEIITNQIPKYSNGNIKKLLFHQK
Method in brief: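 Readout is luciferase from a modified MMTV LTR promoter after 24 h compound exposure alongside 10 nM dexamethasone (100% activity reference), DMSO ≤1%.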

human GR [2] = target: T1, human GR; assay: Transrepression Assay (GITAR), TNFα-β-lactamase reporter in U937 cells; assay type: cell-based; design: U937 cells contain an endogenous glucocorticoid receptor (GR); endogenous in cells; host or cells: U937 cells stably transfected with the TNF-alpha promoter/beta-lactamase reporter; conditions: for GITAR > GRAMM % SEP: GITAR Emax minus GRAMMER Emax; for pEC50: U937 cells, inflection point, read-out: Transrepression U937 Cells GITAR IP
Method in brief: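 Repression normalised to 100 nM dexamethasone (100%), measured with CCF2-AM β-lactamase substrate after 70–90 min at room temperature. Stably transfected U937 cells were exposed to compound 30–45 min, then to PMA (5 ng/ml final) plus LPS (100 ng/ml final) overnight (~18 hr), 37° C.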

[3] = U-937, U937 cells, maximum activity, read-out: Transrepression U937 Cells GITAR Emax
[4] = U-937, activity repressed by 100 nM dexamethasone alone set as 100%, read-out: maximal activity in the transrepression (GITAR) assay

Row | Compound | Emax (human GR [1]) [%] | pEC50 (human GR [1]) | GITAR > GRAMM % SEP (human GR [2]) [%] | pEC50 (human GR [2]) | Emax (human GR [2]; [3]) [%] | Emax (human GR [2]; [4]) [%]
1 | CNC(=O)Nc1ccc(S(=O)(=O)N(CC2CC2)C[C@H]2CCC3=Cc4c(cnn4-c4ccc(F)cc4)C[C@@]32C)c(Cl)c1 [Example 14, 2-chloro-N-(cyclopropylmethyl)-N-{[(4αR,5S)-1-(4-fluorophenyl)-4α-methyl-1,4,4α,5,6,7-hexahydrocyclopenta[f]indazol-5-yl]methyl}-4-{[(methylamino)carbonyl]amino}-benzenesulfonamide] | 25.2 | 6.46 | 34.1 | 6.26 | 59.3 | > 5
2 | C[C@]12Cc3cnn(-c4ccc(F)cc4)c3C=C1CC[C@@H]2CN(CCc1ccccc1F)S(=O)(=O)Cc1ccccc1C(N)=O [Example 190, 2-{[([2-(2-fluorophenyl)ethyl]{[(4αR,5S)-1-(4-fluorophenyl)-4α-methyl-1,4,4α,5,6,7-hexahydrocyclopenta[f]indazol-5-yl]methyl}amino)sulfonyl]methyl}benzamide] | 65.1 | 6.37 | 12.4 | 6.41 | 77.4 | > 5
3 | C[C@]12Cc3cnn(-c4ccc(F)cc4)c3C=C1CC[C@@H]2CN(CC#N)S(=O)(=O)c1ccc(F)cc1 [Example 46, N-(cyanomethyl)-4-fluoro-N-{[(4αR,5S)-1-(4-fluorophenyl)-4α-methyl-1,4,4α,5,6,7-hexahydrocyclopenta[f]indazol-5-yl]methyl}benzenesulfonamide] | 83.3 | 6.43 | 2.1 | 6.73 | 85.5 | > 5
4 | C[C@]12Cc3cnn(-c4ccc(F)cc4)c3C=C1CC[C@@H]2CN(CC1(O)CC1)S(=O)(=O)c1ccccc1F [Example 200, 2-fluoro-N-{[(4αR,5S)-1-(4-fluorophenyl)-4α-methyl-1,4,4α,5,6,7-hexahydrocyclopenta[f]indazol-5-yl]methyl}-N-[(1-hydroxycyclopropyl)methyl]benzenesulfonamide] | 57.5 | 7.32 | 28.4 | 6.51 | 85.9 | > 5
5 | COC(=O)c1ccccc1S(=O)(=O)N(CC1CC1)C[C@H]1CCC2=Cc3c(cnn3-c3ccc(F)cc3)C[C@@]21C [Example 18, methyl 2-[((cyclopropylmethyl){[(4αR,5S)-1-(4-fluorophenyl)-4α-methyl-1,4,4α,5,6,7-hexahydrocyclopenta[f]indazol-5 yl]methyl}amino)sulfonyl]benzoate] | 20 | 6.40 | 15.3 | 6.38 | 35.3 | > 5
6 | CN1CCOc2cc(S(=O)(=O)N(CC#N)C[C@H]3CCC4=Cc5c(cnn5-c5ccc(F)cc5)C[C@@]43C)ccc21 [Example 39, N-(cyanomethyl)-N-{[(4αR,5S)-1-(4-fluorophenyl)-4α-methyl-1,4,4α,5,6,7-hexahydrocyclopenta[f]indazol-5-yl]methyl}-4-methyl-3,4-dihydro-2H-1,4-benzoxazine-7-sulfonamide] | 1.7 | 5.30 | 15.5 | 7.46 | 17.1 | > 5
7 | C[C@@H](O)CN(C[C@H]1CCC2=Cc3c(cnn3-c3ccc(F)cc3)C[C@@]21C)S(=O)(=O)Cc1ccccc1C(=O)O [Example 182, 2-[({{[(4αR,5S)-1-(4-fluorophenyl)-4α-methyl-1,4,4α,5,6,7-hexahydrocyclopenta[f]indazol-5-yl]methyl}[(2R)-2-hydroxypropyl]amino}sulfonyl)methyl]benzoic acid] | 8 | 5.32 | 8.2 | 5.72 | 16.2 | > 5
8 | COC(=O)c1ccccc1CS(=O)(=O)N(C[C@H]1CCC2=Cc3c(cnn3-c3ccc(F)cc3)C[C@@]21C)C[C@@H](C)O [Example 180, methyl 2-[({{[(4αR,5S)-1-(4-fluorophenyl)-4α-methyl-1,4,4α,5,6,7-hexahydrocyclopenta[f]indazol-5-yl]methyl}[(2R)-2-hydroxypropyl]amino}sulfonyl)methyl]benzoatee] | 38.1 | 6.61 | 39.5 | 6.73 | 77.7 | > 5

Further lines, results first:

Row | Emax (human GR [1]) [%] | pEC50 (human GR [1]) | GITAR > GRAMM % SEP (human GR [2]) [%] | pEC50 (human GR [2]) | Emax (human GR [2]; [3]) [%] | Emax (human GR [2]; [4]) [%] | Compound
9 | 58.3 | 6.20 | 15.7 | 6.05 | 74 | > 5 | C[C@]12Cc3cnn(-c4ccc(F)cc4)c3C=C1CC[C@@H]2CN(CC#N)S(=O)(=O)c1cc(F)c(F)cc1F [Example 47, N-(cyanomethyl)-2,4,5-trifluoro-N-{[(4αR,5S)-1-(4-fluorophenyl)-4α-methyl-1,4,4α,5,6,7-hexahydrocyclopenta[f]indazol-5-yl]methyl}benzenesulfonamide]
10 | 2.8 | 5.66 | 30.9 | 5.87 | 33.8 | > 5 | Cn1cnc(S(=O)(=O)N(CC#N)C[C@H]2CCC3=Cc4c(cnn4-c4ccc(F)cc4)C[C@@]32C)c1 [Example 37, N-(cyanomethyl)-N-{[(4αR,5S)-1-(4-fluorophenyl}-4α-methyl-1,4,4α,5,6,7-hexahydrocyclopenta[f]indazol-5-yl]methyl}-1-methyl-1H-imidazole-4-sulfonamide]
11 | 50.9 | 6.09 | 36.1 | 6.19 | 86.9 | > 5 | Cc1oncc1S(=O)(=O)N(CCO)C[C@H]1CCC2=Cc3c(cnn3-c3ccc(F)cc3)C[C@@]21C [Example 56, N-{[(4αR,5S)-1-(4-fluorophenyl)-4α-methyl-1,4,4α,5,6,7-hexahydrocyclopenta[f]indazol-5-yl]methyl}-N-(2-hydroxyethyl)-5-methylisoxazole-4-sulfonamide]
12 | 65.4 | 6.56 | 31.2 | 6.36 | 96.5 | > 5 | CCN(C[C@H]1CCC2=Cc3c(cnn3-c3ccc(F)cc3)C[C@@]21C)S(=O)(=O)CC(F)(F)F [Example 179, N-ethyl-2,2,2-trifluoro-N-{[(4αR,5S)-1-(4-fluorophenyl)-4α-methyl-1,4,4α,5,6,7-hexahydrocyclopenta[f]indazol-5-yl]methyl}ethanesulfonamide]
13 | 22.7 | 6.42 | – | 6.09 | 47.5 | > 5 | Cn1cc(S(=O)(=O)N(CC2CCCO2)C[C@H]2CCC3=Cc4c(cnn4-c4ccc(F)cc4)C[C@@]32C)c(C(F)(F)F)n1 (stereo partly drawn) [Example 175, N-{[(4αR,5S)-1-(4-fluorophenyl)-4α-methyl-1,4,4α,5,6,7-hexahydrocyclopenta[f]indazol-5-yl]methyl}-1-methyl-N-(tetrahydrofuran-2-ylmethyl)-3-(trifluoromethyl)-1H-pyrazole-4-sulfonamide]
14 | 71.3 | 6.54 | 16.7 | 6.39 | 88 | > 5 | CCS(=O)(=O)N(CCOC)C[C@H]1CCC2=Cc3c(cnn3-c3ccc(F)cc3)C[C@@]21C [Example 171, N-{[(4αR,5S)-1-(4-fluorophenyl)-4α-methyl-1,4,4α,5,6,7-hexahydrocyclopenta[f]indazol-5-yl]methyl}-N-(2-methoxyethyl)ethanesulfonamide]
15 | 3 | 6.00 | 10.0 | 6.20 | 13 | > 5 | C[C@]12Cc3cnn(-c4ccc(F)cc4)c3C=C1CC[C@@H]2CN(CC#N)S(=O)(=O)c1ccc(Cl)c(C(F)(F)F)c1 [Example 27, 4-chloro-N-(cyanomethyl)-N-{[(4αR,5S)-1-(4-fluorophenyl)-4α-methyl-1,4,4α,5,6,7-hexahydrocyclopenta[f]indazol-5-yl]methyl}-3-(trifluoromethyl)benzenesulfonamide]
